Columns and labels:
Format in all cases: cell-based
[1] = tested on: Acinetobacter baumannii 9010; experiment: First screening, agar dilution MIC
Procedure: (§1) Clinical bacterial isolates from human samples collected in Lille (France) and some collection strains were used. The first screening step on pathogenic bacteria was carried out with crude hydro-alcoholic extracts of different hop parts (Table 1). The second screening was performed using sub-extracts of cones on Gram-positive bacteria, including methicillin-sensitive Staphylococcus aureus (MSSA) and methicillin-resistant Staphylococcus aureus […] (Table 2). These tests were carried out on Petri dishes, Mueller-Hinton Agar (MHA) (Oxoid, UK) was mixed with the plant extract solution in MeOH at 5% (solvent control: 5% MeOH). Final extract concentrations in Petri dishes ranged from 1250 to 4.9 µg/mL. A multi-headed inoculator allowed spotting bacterial strains at 10^5 CFU/mL in cysteinated Ringer (CR) solution (Merck®, France). Minimal Inhibitory Concentrations (MICs) were visually determined after 24 h of incubation at 37 °C.

[2] = tested on: Acinetobacter baumannii 9011; experiment: First screening, agar dilution MIC
Procedure: as §1

[3] = tested on: Citrobacter freundii 11041; experiment: First screening, agar dilution MIC
Procedure: as §1

[4] = tested on: Citrobacter freundii 11042; experiment: First screening, agar dilution MIC
Procedure: as §1

Corynebacterium T25-17 [5] = experiment: First screening, agar dilution MIC
Procedure: as §1

[6] = tested on: Enterobacter cloacae 11050; experiment: First screening, agar dilution MIC
Procedure: as §1

[7] = tested on: Enterobacter cloacae 11051; experiment: First screening, agar dilution MIC
Procedure: as §1

[8] = tested on: Enterobacter cloacae 11053; experiment: First screening, agar dilution MIC
Procedure: as §1

[9] = tested on: Enterococcus faecalis C159-6; experiment: First screening, agar dilution MIC
Procedure: as §1

Enterococcus sp. 8153 = experiment: First screening, agar dilution MIC
Procedure: as §1

Escherichia coli 8138 = experiment: First screening, agar dilution MIC
Procedure: as §1

Escherichia coli 8157 = experiment: First screening, agar dilution MIC
Procedure: as §1

[10] = tested on: Escherichia coli ATCC 25922; experiment: First screening, agar dilution MIC
Procedure: as §1

[11] = tested on: Klebsiella pneumoniae 11016; experiment: First screening, agar dilution MIC
Procedure: as §1

[12] = tested on: Klebsiella pneumoniae 11017; experiment: First screening, agar dilution MIC
Procedure: as §1

[13] = tested on: Mycobacterium smegmatis 5003; experiment: First screening, agar dilution MIC
Procedure: as §1

Proteus mirabilis 11060 = experiment: First screening, agar dilution MIC
Procedure: as §1

[14] = tested on: Providencia stuartii 11038; experiment: First screening, agar dilution MIC
Procedure: as §1

[15] = tested on: Pseudomonas aeruginosa 8131; experiment: First screening, agar dilution MIC
Procedure: as §1

[16] = tested on: Pseudomonas aeruginosa ATCC 27583; experiment: First screening, agar dilution MIC
Procedure: as §1

Salmonella sp. 11033 = experiment: First screening, agar dilution MIC
Procedure: as §1

[17] = tested on: Serratia marcescens 11056; experiment: First screening, agar dilution MIC
Procedure: as §1

[18] = tested on: Serratia marcescens 11057; experiment: First screening, agar dilution MIC
Procedure: as §1

[19] = tested on: Staphylococcus aureus 8146; experiment: First screening, agar dilution MIC
Procedure: as §1

[20] = tested on: Staphylococcus aureus 8147; experiment: First screening, agar dilution MIC
Procedure: as §1

[21] = tested on: Staphylococcus epidermidis 10282; experiment: First screening, agar dilution MIC
Procedure: as §1

[22] = tested on: Staphylococcus epidermidis 5001; experiment: First screening, agar dilution MIC
Procedure: as §1

[23] = tested on: Staphylococcus lugdunensis T26A3; experiment: First screening, agar dilution MIC
Procedure: as §1

[24] = tested on: Staphylococcus warneri T12A12; experiment: First screening, agar dilution MIC
Procedure: as §1

[25] = tested on: Stenotrophomonas maltophilia; experiment: First screening, agar dilution MIC
Procedure: as §1

[26] = tested on: Streptococcus agalactiae T25-7; experiment: First screening, agar dilution MIC
Procedure: as §1

[27] = tested on: Streptococcus agalactiae T53C2; experiment: First screening, agar dilution MIC
Procedure: as §1

[28] = tested on: Streptococcus dysgalactiae T46C14; experiment: First screening, agar dilution MIC
Procedure: as §1

Corynebacterium T25-17 [29] = experiment: Second screening, agar dilution MIC; conditions: Table 2
Procedure: as §1

[30] = tested on: Enterococcus faecalis T26-B7; experiment: Second screening, agar dilution MIC
Procedure: as §1

[31] = tested on: Enterococcus faecalis T34-2; experiment: Second screening, agar dilution MIC
Procedure: as §1

[32] = tested on: Enterococcus faecalis T37A4; experiment: Second screening, agar dilution MIC
Procedure: as §1

[33] = tested on: Enterococcus faecalis T39-C11; experiment: Second screening, agar dilution MIC
Procedure: as §1

[34] = tested on: Staphylococcus aureus 8147; experiment: Second screening, agar dilution MIC; conditions: Table 2
Procedure: as §1

[35] = tested on: Staphylococcus aureus CIP 224; experiment: Second screening, agar dilution MIC
Procedure: as §1

[36] = tested on: Staphylococcus aureus T1.1; experiment: Second screening, agar dilution MIC
Procedure: as §1

[37] = tested on: Staphylococcus aureus T25.10; experiment: Second screening, agar dilution MIC
Procedure: as §1

[38] = tested on: Staphylococcus aureus T25.3; experiment: Second screening, agar dilution MIC
Procedure: as §1

[39] = tested on: Staphylococcus aureus T25.9; experiment: Second screening, agar dilution MIC
Procedure: as §1

[40] = tested on: Staphylococcus aureus T26A4; experiment: Second screening, agar dilution MIC
Procedure: as §1

[41] = tested on: Staphylococcus aureus T28.1; experiment: Second screening, agar dilution MIC
Procedure: as §1

[42] = tested on: Staphylococcus aureus T36B1; experiment: Second screening, agar dilution MIC
Procedure: as §1

[43] = tested on: Staphylococcus aureus T47A12; experiment: Second screening, agar dilution MIC
Procedure: as §1

[44] = tested on: Staphylococcus aureus T6.7; experiment: Second screening, agar dilution MIC
Procedure: as §1

[45] = tested on: Staphylococcus epidermidis 5001; experiment: Second screening, agar dilution MIC; conditions: Table 2
Procedure: as §1

[46] = tested on: Staphylococcus lugdunensis T26A3; experiment: Second screening, agar dilution MIC; conditions: Table 2
Procedure: as §1

[47] = tested on: Staphylococcus pettenkoferi T3.3; experiment: Second screening, agar dilution MIC
Procedure: as §1

[48] = tested on: Staphylococcus saprophyticus 08237; experiment: Second screening, agar dilution MIC
Procedure: as §1

[49] = tested on: Streptococcus agalactiae 13225; experiment: Second screening, agar dilution MIC
Procedure: as §1

[50] = tested on: Streptococcus agalactiae 13226; experiment: Second screening, agar dilution MIC
Procedure: as §1

[51] = tested on: Streptococcus agalactiae T25.7; experiment: Second screening, agar dilution MIC
Procedure: as §1

[52] = tested on: Streptococcus agalactiae T38.2; experiment: Second screening, agar dilution MIC
Procedure: as §1

[53] = tested on: Streptococcus agalactiae T40A2; experiment: Second screening, agar dilution MIC
Procedure: as §1

CN[C@H](CC(C)C)C(=O)N[C@H]1C(=O)N[C@@H](CC(N)=O)C(=O)N[C@H]2C(=O)N[C@H]3C(=O)N[C@H](C(=O)N[C@H](C(=O)O)c4cc(O)cc(O)c4-c4cc3ccc4O)[C@H](O)c3ccc(c(Cl)c3)Oc3cc2cc(c3O[C@@H]2O[C@H](CO)[C@@H](O)[C@H](O)[C@H]2O[C@H]2C[C@](C)(N)[C@H](O)[C@H](C)O2)Oc2ccc(cc2Cl)[C@H]1O [VAN, Vancomycin]
Susceptibility to VAN [1]: R (R > 16)
Susceptibility to VAN [2]: R (R > 16)
Susceptibility to VAN [3]: R (R > 16)
Susceptibility to VAN [4]: R (R > 16)
Susceptibility to VAN (Corynebacterium T25-17 [5]): S (Vancomycin (VAN) S ≤ 4)
Susceptibility to VAN [6]: R (R > 16)
Susceptibility to VAN [7]: R (R > 16)
Susceptibility to VAN [8]: R (R > 16)
Susceptibility to VAN [9]: S (Vancomycin (VAN) S ≤ 4)
Susceptibility to VAN (Enterococcus sp. 8153): S (Vancomycin (VAN) S ≤ 4)
Susceptibility to VAN (Escherichia coli 8138): R (R > 16)
Susceptibility to VAN (Escherichia coli 8157): R (R > 16)
Susceptibility to VAN [10]: R (R > 16)
Susceptibility to VAN [11]: R (R > 16)
Susceptibility to VAN [12]: R (R > 16)
Susceptibility to VAN [13]: S (Vancomycin (VAN) S ≤ 4)
Susceptibility to VAN (Proteus mirabilis 11060): R (R > 16)
Susceptibility to VAN [14]: R (R > 16)
Susceptibility to VAN [15]: R (R > 16)
Susceptibility to VAN [16]: R (R > 16)
Susceptibility to VAN (Salmonella sp. 11033): R (R > 16)
Susceptibility to VAN [17]: R (R > 16)
Susceptibility to VAN [18]: R (R > 16)
Susceptibility to VAN [19]: S (Vancomycin (VAN) S ≤ 4)
Susceptibility to VAN [20]: S (Vancomycin (VAN) S ≤ 4)
Susceptibility to VAN [21]: S (Vancomycin (VAN) S ≤ 4)
Susceptibility to VAN [22]: S (Vancomycin (VAN) S ≤ 4)
Susceptibility to VAN [23]: S (Vancomycin (VAN) S ≤ 4)
Susceptibility to VAN [24]: R (R > 16)
Susceptibility to VAN [25]: R (R > 16)
Susceptibility to VAN [26]: S (Vancomycin (VAN) S ≤ 4)
Susceptibility to VAN [27]: S (Vancomycin (VAN) S ≤ 4)
Susceptibility to VAN [28]: S (Vancomycin (VAN) S ≤ 4)
Susceptibility to VAN (Corynebacterium T25-17 [29]): S (Vancomycin (VAN) S ≤ 4)
Susceptibility to VAN [30]: S (Vancomycin (VAN) S ≤ 4)
Susceptibility to VAN [31]: S (Vancomycin (VAN) S ≤ 4)
Susceptibility to VAN [32]: S (Vancomycin (VAN) S ≤ 4)
Susceptibility to VAN [33]: S (Vancomycin (VAN) S ≤ 4)
Susceptibility to VAN [34]: S (Vancomycin (VAN) S ≤ 4)
Susceptibility to VAN [35]: S (Vancomycin (VAN) S ≤ 4)
Susceptibility to VAN [36]: S (Vancomycin (VAN) S ≤ 4)
Susceptibility to VAN [37]: S (Vancomycin (VAN) S ≤ 4)
Susceptibility to VAN [38]: S (Vancomycin (VAN) S ≤ 4)
Susceptibility to VAN [39]: S (Vancomycin (VAN) S ≤ 4)
Susceptibility to VAN [40]: S (Vancomycin (VAN) S ≤ 4)
Susceptibility to VAN [41]: S (Vancomycin (VAN) S ≤ 4)
Susceptibility to VAN [42]: S (Vancomycin (VAN) S ≤ 4)
Susceptibility to VAN [43]: S (Vancomycin (VAN) S ≤ 4)
Susceptibility to VAN [44]: S (Vancomycin (VAN) S ≤ 4)
Susceptibility to VAN [45]: S (Vancomycin (VAN) S ≤ 4)
Susceptibility to VAN [46]: S (Vancomycin (VAN) S ≤ 4)
Susceptibility to VAN [47]: S (Vancomycin (VAN) S ≤ 4)
Susceptibility to VAN [48]: S (Vancomycin (VAN) S ≤ 4)
Susceptibility to VAN [49]: S (Vancomycin (VAN) S ≤ 4)
Susceptibility to VAN [50]: S (Vancomycin (VAN) S ≤ 4)
Susceptibility to VAN [51]: S (Vancomycin (VAN) S ≤ 4)
Susceptibility to VAN [52]: S (Vancomycin (VAN) S ≤ 4)
Susceptibility to VAN [53]: S (Vancomycin (VAN) S ≤ 4)

Reference: PMC6472001, “Phenolic Compounds from Humulus lupulus as Natural Antimicrobial Products: New Weapons in the Fight against Methicillin Resistant Staphylococcus aureus, Leishmania mexicana and Trypanosoma brucei Strains” (Molecules, 2019)
